Measurements taken from US20240246954A1, “COMPOSITIONS AND METHODS FOR INHIBITING KRAS” (TheRas, Inc., priority 2021, published 2024).

Assays:
[1] = biological target: T1, Avi-KRAS G12D/Q25A (1-169) GppNHp/3×FLAG-PI3KCA (157-299) (Homo sapiens, UniProt P01116, G12D/Q25A); experiment: HTRF PI3KCA-KRAS G12D/Q25A-GppNHp disruption assay; type: biochemical; conditions: 1 h incubation
T1 construct: Avi-KRAS G12D/Q25A (1-169) GppNHp
Procedure: (§1) The HTRF assay employed the following protocol:
(§2) Compounds were dispensed in assay plate (384-well, Grenier Bione #784075) using Echo (model 555) with dose response settings: 200 nL final volume, titration from 100 μM as a 10-point dilution series. Protein mix was prepared in assay buffer, and dispensed on plates, 10 μL per well, then incubated for 1 h at room temperature, with 700 rpm shaking. Reagents mix was prepared and dispensed on plates, 10 μL per well, then incubated for 1 h at room temperature, with 700 rpm shaking.
(§3) Plates were analyzed on an Envision plate reader using the following setting: Excitation 320 nm, Bandwidth […]; Emission 615 nm, Bandwidth […], Gain 100%, Flashes 100, Lag 60 μs. Data was reported as percentage of activity, with DMSO as 100%. Data was plotted and analyzed using Prism 8.

[2] = biological target: T2, Avi-KRAS G12D (1-169) GppNHp/RAF1 RBD-3×FLAG (52-151) (Homo sapiens, UniProt P01116, G12D); experiment: HTRF Raf1-KRAS G12D-GppNHp disruption assay; type: biochemical; conditions: 1 h incubation
T2 construct: Avi-KRAS G12D (1-169) GppNHp
T2 sequence (P01116 1-169 isoform P01116-2 G12D limits assumed): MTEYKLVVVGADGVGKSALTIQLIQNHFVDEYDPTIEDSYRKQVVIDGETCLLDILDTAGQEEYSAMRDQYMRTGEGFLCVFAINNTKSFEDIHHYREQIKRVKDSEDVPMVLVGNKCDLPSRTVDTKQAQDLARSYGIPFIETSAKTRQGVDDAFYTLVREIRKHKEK
Procedure: as §1, §2, §3

T1 sequence (P01116 1-169 isoform P01116-2 G12D/Q25A limits assumed): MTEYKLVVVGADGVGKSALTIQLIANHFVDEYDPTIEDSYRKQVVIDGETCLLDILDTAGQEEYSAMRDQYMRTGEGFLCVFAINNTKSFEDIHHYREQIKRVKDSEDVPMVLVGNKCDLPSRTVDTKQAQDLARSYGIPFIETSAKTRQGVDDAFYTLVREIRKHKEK

## CN1CCC[C@H]1COc1nc(NCCN)c2cc(Cl)c(-c3cccc4nc(N)sc34)c(F)c2n1 [Compound 100]
[1]
  IC50: 10 to 30 µM
[2]
  IC50: 10 to 30 µM

## CN1CCC(c2nc(N3CCNCC3)c3cc(Cl)c(-c4ccc(F)c5sc(N)nc45)c(F)c3n2)CC1 [Compound 101]
[1]
  IC50: 10 to 30 µM
[2]
  IC50: 10 to 30 µM

## CN1CCC(c2nc(NC3CNC3)c3cc(Cl)c(-c4ccc(F)c5sc(N)nc45)c(F)c3n2)CC1 [Compound 102]
[1]
  IC50: 10 to 30 µM
[2]
  IC50: 10 to 30 µM

## CN1CCC(c2nc(NCCN)c3cc(Cl)c(-c4ccc(F)c5sc(N)nc45)c(F)c3n2)CC1 [Compound 103]
[1]
  IC50: 10 to 30 µM
[2]
  IC50: 10 to 30 µM

## CN1CCC[C@H]1COc1nc(N2C[C@@H]3[C@H]2CCN3C(=O)CN)c2cc(Cl)c(-c3cccc4nc(N)sc34)c(F)c2n1 [Compound 104]
[1]
  IC50: 10 to 30 µM
[2]
  IC50: 10 to 30 µM

## CN1CCC1COc1nc(NC2CNC2)c2cc(Cl)c(-c3ccc(F)c4sc(N)nc34)c(F)c2n1 (centres unmarked) [Compound 105]
[1]
  IC50: 10 to 30 µM
[2]
  IC50: 10 to 30 µM

## CN1C[C@H](F)C[C@H]1COc1nc(NC2CNC2)c2cc(Cl)c(-c3ccc(F)c4sc(N)nc34)c(F)c2n1 [Compound 106]
[1]
  IC50: 1 to 10 µM
[2]
  IC50: 1 to 10 µM

## CN1CCC[C@H]1COc1nc(NCCN)c2cc(Cl)c(-c3ccc(F)c4nc(N)sc34)c(F)c2n1 [Compound 107]
[1]
  IC50: 10 to 30 µM
[2]
  IC50: 10 to 30 µM

## CN1CCC[C@H]1COc1nc(N2CCN(C(=O)CN)CC2)c2cc(Cl)c(-c3ccc(F)c4sc(N)nc34)c(F)c2n1 [Compound 108]
[1]
  IC50: 10 to 30 µM
[2]
  IC50: 10 to 30 µM

## CN1CCC[C@H]1COc1nc(NCCN)c2cc(Cl)c(-c3ccc4nc(N)sc4c3)c(F)c2n1 [Compound 109]
[1]
  IC50: 10 to 30 µM
[2]
  IC50: 10 to 30 µM

## CN1CCC[C@H]1COc1nc(N2CC(N)C2)c2cc(Cl)c(-c3ccc(F)c4sc(N)nc34)c(F)c2n1 [Compound 112]
[1]
  IC50: 1 to 10 µM
[2]
  IC50: 1 to 10 µM

## Nc1nc2c(F)ccc(-c3c(-c4ccoc4)cc4c(NC5CNC5)nc(OCC56CCCN5CCC6)nc4c3F)c2s1 [Compound 113]
[1]
  IC50: 1 to 10 µM
[2]
  IC50: 0.1 to 1 µM

## CN1CCC[C@H]1COc1nc(NC2CN(C(=O)CN)C2)c2cc(C(F)(F)F)c(-c3ccc(F)c4sc(N)nc34)c(F)c2n1 [Compound 114]
[1]
  IC50: 1 to 10 µM
[2]
  IC50: 1 to 10 µM

## CN1CCC[C@H]1COc1nc(N2CCNCC2)c2cc(C(F)(F)F)c(-c3ccc(F)c4sc(N)nc34)c(F)c2n1 [Compound 115]
[1]
  IC50: 1 to 10 µM
[2]
  IC50: 1 to 10 µM

## CN1CCC[C@H]1COc1nc(N2CCN(C(=O)CN)CC2)c2cc(C(F)(F)F)c(-c3ccc(F)c4sc(N)nc34)c(F)c2n1 [Compound 116]
[1]
  IC50: 1 to 10 µM
[2]
  IC50: 1 to 10 µM

## CN1C[C@H](F)C[C@H]1COc1nc(NC2CNC2)c2cc(C(F)(F)F)c(-c3ccc(F)c4sc(N)nc34)c(F)c2n1 [Compound 119]
[1]
  IC50: 1 to 10 µM
[2]
  IC50: 1 to 10 µM

## CO[C@@H]1C[C@@H](COc2nc(NC3CNC3)c3cc(C(F)(F)F)c(-c4ccc(F)c5sc(N)nc45)c(F)c3n2)N(C)C1 [Compound 122]
[1]
  IC50: 1 to 10 µM
[2]
  IC50: 1 to 10 µM

## Nc1nc2c(-c3c(C(F)(F)F)cc4c(N5CCNCC5)nc(OCC56CCCN5CCC6)nc4c3F)ccc(F)c2s1 [Compound 123]
[1]
  IC50: 1 to 10 µM
[2]
  IC50: 1 to 10 µM

## COc1c(Cl)c(-c2ccc(F)c3sc(N)nc23)c(F)c2ncnc(N3CCNCC3)c12 [Compound 125, 4-(6-chloro-8-fluoro-5-methoxy-4-(piperazin-1-yl)quinazolin-7-yl)-7-fluorobenzo[d]thiazol-2-amine]
[1]
  IC50: 10 to 30 µM
[2]
  IC50: 10 to 30 µM

## CN1C[C@H](F)C[C@H]1COc1nc(N2CCNCC2)c2cc(Cl)c(-c3ccc(F)c4sc(N)nc34)c(F)c2n1 [Compound 128]
[1]
  IC50: 10 to 30 µM
[2]
  IC50: 10 to 30 µM

## N#CCc1cc2c(N3CCN(C(=O)CN)CC3)ncnc2c(F)c1-c1ccc(F)c2sc(N)nc12 [Compound 131]
[1]
  IC50: 10 to 30 µM
[2]
  IC50: 10 to 30 µM

## CN1C[C@H](OC(F)F)C[C@H]1COc1nc(NC2CNC2)c2cc(Cl)c(-c3ccc(F)c4sc(N)nc34)c(F)c2n1 [Compound 132]
[1]
  IC50: 1 to 10 µM
[2]
  IC50: 1 to 10 µM
